According to patent US7122335B1, “Compounds and methods to enhance rAAV transduction” (priority 1999, dated 2006):

Key:
Hela cells [1] = settings: previously shown; cited from earlier work
Hela cells [2] = test: Cy3-labeled rAAV binding to Hela cells at 4° C., heparin competition; format: cell-based, human; settings: free heparin at the time of infection
Protocol: FIGS. 18A–D. Cy3-labeled rAAV infection in Hela cells. Hela cells were infected with Cy3-labeled AV.GFP3ori at an MOI of 500 particles/cells for 90 minutes at 4° C. in the absence of serum. Cells were then washed and either directly fixed in 2% paraformaldehyde for 10 minutes or incubated at 37° C. for an additional 60 or 120 minutes prior to fixation. Prior to viral infections, cells were incubated for 30 minutes in 1 μM 5-chloromethylfluorescein diacetate (Cell Tracker™ Green CMFDA, Molecular Probe) to allow for visualization of cells and labeled virus in dual fluorescent channel images. Representative confocal image of cells infected for 90 minutes at 4° C. followed by a 60 and 120 minute incubation at 37° C. are shown for both Cy3 and dual Cy3/FITC channels (FIG. 18A). The nuclei in dual channel images are marked by Nu. The confocal images shown were merged from three 0.5 μm layers taken within the central region of the cell. FIG. 18B depicts non-confocal images with Nomarski and Cy3 channels for cells infected for 90 minutes at 4° C. […]
To assess endocytosis and nuclear trafficking of AAV following treatment with various agents which may modulate these processes, fluorescently labeled virus was prepared. […] Several experimental conditions evaluated crosslinking reactions with dye:rAAV particle ratios of 0.2, 1, 5, 25, 100, and 200. […]

heparin
rAAV transduction in Hela cells (Hela cells [1]): inhibit most of rAAV transduction | viral binding of Cy3-labeled rAAV (Hela cells [2]): inhibited in a dose-dependent fashion
